One assay addresses 5-HT1D receptor (Homo sapiens, UniProt P28221). Description: Cerep GPCR panel, antagonistic effect on 5-HT1D receptor. Type of assay: cell-based.
The target in a further assay is Trypsin (bovine). More on the design: method as in PMID 15771442. To be noted: cited from earlier work.
For the next assay, the target named is Thrombin. The conditions noted are these: cited from earlier work.
For the next assay, the target named is γ-secretase (Homo sapiens, UniProt P49768). In words: Aβ sandwich ELISA in supernatants of CHO cells overexpressing human APP and presenilin-1. To be noted: for Modulation of γ-secretase activity (type): Aβ38/40/42 ELISA, 0.1-40 μM. Type of assay: cell-based. The method, then:
One-step reactions yielded the desired products in both cases. […] Synthesized compounds were tested for their ability to modulate the γ-secretase product spectrum as previously described. CHO cells with stable overexpression of human APP and presenilin-1 were treated with increasing concentrations of 3 and 4. Subsequently, concentrations of secreted Aβ peptides were detected in cell supernatants by sandwich ELISA using C-terminus specific antibodies that distinguish between Aβ38, Aβ40, and Aβ42 peptide species. […] This pattern of inverse γ-secretase modulation has previously been observed, e.g. with derivatives of the non-steroidal anti-inflammatory drug indomethacin [35]. […] Compounds 3 and 4 can serve as tool compounds and – more importantly – as starting points for an optimization of the pharmacological profile by structural modification. […]
Figure S5. Modulation of γ-secretase activity by designed compounds 3 (A) and 4 (B). Both […]
higher levels of Aβ42. Concentrations of secreted Ab peptides were detected in cell supernatants by sandwich ELISA using C-terminus specific antibodies that distinguish between Aβ38, Aβ40, and Aβ42 peptide species as previously described.
(An ELISA detects its analyte on a solid surface through an enzyme-linked reagent.)

The target in another assay is Trypsin. To be noted: cited from earlier work.
A further assay deals with T1, hH4R (Homo sapiens, UniProt Q9H3N8).
T1 construct: made in house; host or cells: insect Sf9 cells (membrane preparations)
In words: Competitive binding, displacement of [3H]histamine, Sf9 membranes expressing hH4R. To be noted: three measurements. The procedure: (§1) In order to test for the hypothesis that a combination of the features – as found in compound 7 – might lead to hH4R affinity, compound 7 was selected for synthesis and testing. […] Binding affinity of compound 7 was determined in a competitive binding assay by measuring displacement of radioactively labeled [^3H]histamine bound to hH4R [42]. Membrane preparations of insect Sf9 cells expressing hH4R together with G-protein subunits Gαi2 and Gβ1γ2 were performed to yield the protein. A similar assay was used to measure the activity on hH3R (reference ligand: [^3H]N ^α-methylhistamine).
(In general: Displacement assays read how much labelled ligand stays bound in the presence of the test substance.)

The target in another assay is δ2 opioid receptor (Homo sapiens, UniProt P41143). Description: Cerep GPCR panel, antagonistic effect on δ2 opioid receptor. It counts as cell-based. To be noted: n = 2.
The next assay concerns other GPCRs in the panel. Description: Cerep panel, other human GPCRs. Type of assay: cell-based. To be noted: remaining GPCRs of the 30-receptor panel.
The next assay addresses hH3R (Homo sapiens, UniProt Q9Y5N1). In words: Competitive binding, displacement of [3H]Nα-methylhistamine at hH3R. To be noted: averaged over four distinct tests. The method, then: as §1
Another assay concerns the target κ opioid receptor (Homo sapiens, UniProt P41145).

Chain of 5-HT1D receptor (P28221 whole entry): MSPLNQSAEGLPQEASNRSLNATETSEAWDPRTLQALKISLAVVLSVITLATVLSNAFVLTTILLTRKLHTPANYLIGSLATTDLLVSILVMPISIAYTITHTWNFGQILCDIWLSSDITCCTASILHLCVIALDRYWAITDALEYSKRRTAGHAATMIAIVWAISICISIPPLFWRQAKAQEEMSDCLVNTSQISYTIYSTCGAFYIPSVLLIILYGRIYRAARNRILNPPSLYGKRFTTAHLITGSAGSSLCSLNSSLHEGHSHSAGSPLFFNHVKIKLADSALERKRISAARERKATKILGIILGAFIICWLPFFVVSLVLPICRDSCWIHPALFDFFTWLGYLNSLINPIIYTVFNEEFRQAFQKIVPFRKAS
Chain of hH3R (Q9Y5N1 whole entry): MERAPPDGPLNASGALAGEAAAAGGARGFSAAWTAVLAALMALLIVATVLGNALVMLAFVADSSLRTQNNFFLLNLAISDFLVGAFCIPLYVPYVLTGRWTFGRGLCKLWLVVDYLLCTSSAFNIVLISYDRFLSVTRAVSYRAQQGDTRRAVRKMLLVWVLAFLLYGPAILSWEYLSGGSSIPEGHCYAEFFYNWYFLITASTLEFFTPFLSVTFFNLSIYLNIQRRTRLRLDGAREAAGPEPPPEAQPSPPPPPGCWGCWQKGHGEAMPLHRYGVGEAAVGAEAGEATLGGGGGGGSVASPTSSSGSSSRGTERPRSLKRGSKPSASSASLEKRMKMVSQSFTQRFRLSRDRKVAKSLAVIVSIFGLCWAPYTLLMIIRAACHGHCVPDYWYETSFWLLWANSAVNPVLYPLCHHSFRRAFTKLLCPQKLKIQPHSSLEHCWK
T1 sequence (Q9H3N8 whole entry): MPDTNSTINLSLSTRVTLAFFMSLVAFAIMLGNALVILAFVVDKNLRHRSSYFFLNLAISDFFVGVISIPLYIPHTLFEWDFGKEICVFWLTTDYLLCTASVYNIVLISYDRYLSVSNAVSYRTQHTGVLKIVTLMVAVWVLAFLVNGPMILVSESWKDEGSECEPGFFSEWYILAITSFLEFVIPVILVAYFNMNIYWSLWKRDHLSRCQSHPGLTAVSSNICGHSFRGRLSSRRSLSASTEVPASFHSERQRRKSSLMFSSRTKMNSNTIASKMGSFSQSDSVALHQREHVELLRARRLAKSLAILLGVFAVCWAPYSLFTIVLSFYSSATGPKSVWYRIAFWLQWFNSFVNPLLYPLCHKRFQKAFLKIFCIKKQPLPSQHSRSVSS
Chain of κ opioid receptor (P41145 whole entry): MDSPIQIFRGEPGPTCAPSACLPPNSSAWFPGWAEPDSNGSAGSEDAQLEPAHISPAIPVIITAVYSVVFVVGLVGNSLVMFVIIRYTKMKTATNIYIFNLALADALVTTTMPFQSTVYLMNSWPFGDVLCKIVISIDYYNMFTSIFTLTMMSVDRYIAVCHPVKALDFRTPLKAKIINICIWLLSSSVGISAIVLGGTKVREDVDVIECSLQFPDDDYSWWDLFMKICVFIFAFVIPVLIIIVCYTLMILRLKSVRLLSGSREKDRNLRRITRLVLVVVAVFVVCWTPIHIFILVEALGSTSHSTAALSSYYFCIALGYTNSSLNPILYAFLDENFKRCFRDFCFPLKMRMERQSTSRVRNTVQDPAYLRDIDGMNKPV
Chain of δ2 opioid receptor (P41143 whole entry): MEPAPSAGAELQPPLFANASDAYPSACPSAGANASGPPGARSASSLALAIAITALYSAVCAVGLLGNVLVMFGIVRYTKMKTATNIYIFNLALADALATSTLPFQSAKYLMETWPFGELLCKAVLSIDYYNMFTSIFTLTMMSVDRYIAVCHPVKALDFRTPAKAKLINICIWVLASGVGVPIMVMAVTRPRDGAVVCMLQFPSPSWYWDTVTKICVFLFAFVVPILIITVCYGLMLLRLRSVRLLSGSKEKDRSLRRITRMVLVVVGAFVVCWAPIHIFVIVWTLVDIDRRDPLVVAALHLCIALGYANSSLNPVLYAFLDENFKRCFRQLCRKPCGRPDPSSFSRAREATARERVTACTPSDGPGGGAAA

As a reminder, the IC50 is the concentration needed to halve the response being measured. At 5-HT1D receptor (reference compound), `CSc1ccc2c(c1)C(N1CCN(C)CC1)Cc1ccccc1S2` (stereo not drawn) [methiothepin, reference compound] displayed an IC50 of 1100 nM.

By Ki is commonly meant a dissociation constant, usually derived from enzyme kinetics or from competition with a known ligand. On to `CN[C@H](Cc1ccccc1)C(=O)N1CCC[C@H]1C(=O)N[C@H](C=O)CCCN=C(N)N` [Efegatran], for which the Ki on Trypsin (bovine) was 9.1 nM; on Thrombin, 18 nM.

For the compound `COc1ccc(N2CCN(C(=O)c3ccc(-c4cc(C(F)(F)F)ccc4Cl)o3)CC2)cc1` [Compound 4], on γ-secretase, the “Modulation of γ-secretase activity (type)” value is on record as “inverse modulators”.

With `CC1=CCN(C(=O)C(Cc2cccc(C(=N)N)c2)NS(=O)(=O)c2ccc3c(c2)CN(C)CC3)C(C(=O)O)C1` (stereo not drawn) [UK-156406], the figures for the Ki at Thrombin and on Trypsin were 0.46 nM and 26 nM, respectively.

As for `N=C(N)Nc1ccc(C(=O)Oc2ccc(SCCN3C(=O)CCC3=O)cc2)cc1` [Patamostat], the IC50 with Thrombin was 1900 nM; in the assay on Trypsin, 39 nM.

On to `Clc1cccc(-c2cn(CCOCCN3CCNCC3)nn2)c1` [Compound 7], for which the Ki at hH4R is 436000 ± 137000 nM; on hH3R, 466000 ± 209000 nM. Besides, the “residual activity of the receptor” value on δ2 opioid receptor worked out at 76%; on 5-HT1D receptor (antagonistic effect, n = 2) it was 62%. For the same compound, the “response at other GPCRs in the panel” value in the assay on other GPCRs in the panel is recorded as “only weak responses in the single digit or low double-digit percent range”. The “agonistic effect, % of the effect of the reference agonist U50488” value at κ opioid receptor is reported as 21%.

Turning to `CN(C)C(=O)COC(=O)Cc1ccc(OC(=O)c2ccc(NC(=N)N)cc2)cc1` [Camostat], the Ki at Trypsin was 50.6 nM.

With `COc1cc(-n2c(C)ccc2C)c(OC)cc1NC(=O)c1ccccc1` [Compound 3], the “Modulation of γ-secretase activity (type)” value on γ-secretase is recorded as “inverse modulators”. In addition, at γ-secretase (secreted Aβ38, CHO cells, increasing concentrations), the Aβ38 levels result is “decrease”. In addition, the Aβ42 levels entry on γ-secretase (secreted Aβ42, CHO cells, increasing concentrations) is reported as “dose-dependent increase”.

Source of the values: article PMC3280956, “DOGS: Reaction-Driven de novo Design of Bioactive Compounds” (PLoS Computational Biology, 2012).
